The values below come from ChEMBL document CHEMBL5131392, “A novel ICG-labeled cyclic TMTP1 peptide dimer for sensitive tumor imaging and enhanced photothermal therapy in vivo” (Eur J Med Chem, 2022).

The test system of data set [1] is 4T1. The data set can be described thus: Cytotoxicity against mouse 4T1 cells assessed as cell viability at higher concentration incubated for 24 hrs by CCK-8 assay relative to control. In kind it is functional.
For data set [2], the system named is 4T1. The data set is described as follows: Upregulation of XPNPEP expression in mouse 4T1 cells by Western blot analysis. Type of data set: functional, cell-based.
Data set [3] is described as follows: Drug uptake in mouse 4T1 cells assessed as increase in fluorescence signal measured after 1 hr by flow cytometry analysis. In kind it is ADME, cell-based. To be noted: 4t1, 1 h.
Data set [4] can be described thus: Biodistribution in BALB/c mouse assessed as increase in fluorescence signal at 30 uM, iv measured after 30 mins by NIR fluorescence imaging analysis. In kind it is ADME, organism-based. To be noted: in vivo, 0.5 h.
The nature of data set [5]: Drug accumulation in BALB/c mouse liver assessed as increase in fluorescence intensity at 30 uM, iv measured after 30 mins by NIR fluorescence imaging analysis. In kind it is ADME, organism-based. To be noted: in vivo, 0.5 h.
The nature of data set [6]: Drug accumulation in BALB/c mouse kidney assessed as increase in fluorescence intensity at 30 uM, iv measured after 2 hrs by NIR fluorescence imaging analysis. In kind it is ADME, organism-based. To be noted: in vivo.
Data set [7] is described as follows: AUC 0 to t in Sprague-Dawley rat at 100 uM, iv measured up to 24 hrs by IVIS spectrum imaging analysis. To be noted: in vivo. Set-up: time < 24 hrs, dose 100 µM, route iv. Type of data set: ADME, organism-based.
Data set [8] in a line: MRT 0 to t in Sprague-Dawley rat at 100 uM, iv measured up to 24 hrs by IVIS spectrum imaging analysis. In kind it is ADME, organism-based. To be noted: in vivo.
A short description of data set [9]: Half life in Sprague-Dawley rat at 100 uM, iv measured up to 24 hrs by IVIS spectrum imaging analysis. In kind it is ADME, organism-based. To be noted: in vivo.
A short description of data set [10]: Cmax in Sprague-Dawley rat at 100 uM, iv measured up to 24 hrs by IVIS spectrum imaging analysis. To be noted: in vivo. Also noted: time < 24 hrs, dose 100 µM, route iv. Type of data set: ADME, organism-based.
Data set [11] is described as follows: Drug uptake in tumor of mouse 4T1 cells allografted in BALB/c mouse assessed as increase in fluorescence signal at 30 uM, iv measured after 12 to 48 hrs by IVIS spectrum in vivo imaging analysis. In kind it is ADME, organism-based, Neoplasm. To be noted: time 12-48 hrs.
Data set [12] is described as follows: Drug uptake in tumor of mouse 4T1 cells allografted in BALB/c mouse assessed as increase in ratio of fluorescence signal in tumor to normal tissue at 30 uM, iv measured after 12 to 48 hrs by NIR fluorescence imaging analysis. Type of data set: ADME, organism-based, Neoplasm. To be noted: in vivo, time 12-48 hrs.
Data set [13] is described as follows: Drug uptake in tumor of mouse 4T1 cells allografted in BALB/c mouse assessed as increase in fluorescence signal at 30 uM, iv measured after 12 hrs by NIR fluorescence imaging analysis. Type of data set: ADME, organism-based, Neoplasm. To be noted: in vivo.
Data set [14] can be described thus: Drug uptake in lymph node of mouse 4T1 cells allografted in BALB/c mouse assessed as increase in fluorescence signal at 30 uM, iv measured after 24 to 48 hrs by NIR fluorescence imaging analysis. In kind it is ADME, organism-based. To be noted: in vivo, time 24-48 hrs.
Data set [15] in a line: Drug uptake in lymph node of mouse 4T1 cells allografted in BALB/c mouse assessed as increase in ratio of fluorescence signal in tumor lymph node to normal lymph node at 30 uM, iv measured up to 48 hrs by NIR fluorescence imaging analysis. To be noted: in vivo. In kind it is ADME, organism-based.
For data set [16], the system named is 4T1. The data set is described as follows: Antitumor activity in mouse 4T1 cells allografted in BALB/c mouse assessed as increase in temperature of tumor site at 100 uM, iv measured after 12 hrs followed by 2.5 W/cm2 NIR laser irradiation for 3 mins by infrared thermal imaging analysis. In kind it is functional.
The test system of data set [17] is 4T1. The data set is described as follows: Antitumor activity against mouse 4T1 cells allografted in BALB/c mouse assessed as inhibition of tumor growth at 100 uM, iv treated for 12 hrs followed by 2.5 W/cm2 NIR laser irradiation for 3 mins and measured every 2 days. In kind it is functional, organism-based. To be noted: time 2.0 day.
Data set [18] in a line: Toxicity in BALB/c mouse allografted with mouse 4T1 cells assessed as change in body weight at 100 uM, iv treated for 12 hrs followed by 2.5 W/cm2 NIR laser irradiation for 3 mins and measured every 2 days. Type of data set: organism-based. To be noted: in vivo, 48 h, time 2 day.
For data set [19], the system named is 4T1. The data set can be described thus: Induction of apoptosis in mouse 4T1 cells allografted in BALB/c mouse assessed as increase in total apoptotic cells at 100 uM, iv measured after 12 hrs followed by 2.5 W/cm2 NIR laser irradiation for 3 mins by hematoxylin and eosin staining based analysis. In kind it is functional, organism-based.
Data set [20] relates to 4T1. The data set is described as follows: Induction of apoptosis in mouse 4T1 cells allografted in BALB/c mouse assessed as increase in total necrotic cells at 100 uM, iv measured after 12 hrs followed by 2.5 W/cm2 NIR laser irradiation for 3 mins by hematoxylin and eosin staining based analysis. In kind it is functional, organism-based.
In data set [21] the test system is 4T1. The data set is described as follows: Induction of apoptosis in mouse 4T1 cells allografted in BALB/c mouse assessed as increase in total apoptotic cells at 100 uM, iv measured after 12 hrs followed by 2.5 W/cm2 NIR laser irradiation for 3 mins by TUNEL staining based analysis. In kind it is functional, organism-based.
Data set [22] in a line: Toxicity in BALB/c mouse allografted with mouse 4T1 cells assessed as histopathological change in heart at 100 uM, iv measured after 12 hrs followed by 2.5 W/cm2 NIR laser irradiation for 3 mins by hematoxylin and eosin staining based analysis. Type of data set: organism-based. To be noted: in vivo.
The nature of data set [23]: Toxicity in BALB/c mouse allografted with mouse 4T1 cells assessed as histopathological change in liver at 100 uM, iv measured after 12 hrs followed by 2.5 W/cm2 NIR laser irradiation for 3 mins by hematoxylin and eosin staining based analysis. To be noted: in vivo. Type of data set: organism-based.
Data set [24] is described as follows: Toxicity in BALB/c mouse allografted with mouse 4T1 cells assessed as histopathological change in spleen at 100 uM, iv measured after 12 hrs followed by 2.5 W/cm2 NIR laser irradiation for 3 mins by hematoxylin and eosin staining based analysis. Type of data set: organism-based. To be noted: in vivo.
Data set [25] in a line: Toxicity in BALB/c mouse allografted with mouse 4T1 cells assessed as histopathological change in lung at 100 uM, iv measured after 12 hrs followed by 2.5 W/cm2 NIR laser irradiation for 3 mins by hematoxylin and eosin staining based analysis. To be noted: in vivo. In kind it is organism-based.
Data set [26] in a line: Toxicity in BALB/c mouse allografted with mouse 4T1 cells assessed as histopathological change in kidney at 100 uM, iv measured after 12 hrs followed by 2.5 W/cm2 NIR laser irradiation for 3 mins by hematoxylin and eosin staining based analysis. Type of data set: organism-based. To be noted: in vivo.
Data set [27] is described as follows: Drug uptake in tumor of mouse 4T1 cells allografted in BALB/c mouse assessed as XPNPEP2 expression by […] based analysis. In kind it is ADME, Neoplasm.

Active and inactive are the calls of the source. The calls are words filed in the database; no cut-off is given here. Bridge positions count the residues as written; N and C are the ends. Square brackets hold non-standard residues; d marks the D form. Peptide text beside a SMILES is read from it. I, II: the chains in the order shown. * marks the point of attachment. X1 = CC1(C)C(/C=C/C=C/C=C/C=C2/N(CCCCCC(=O)*)c3ccc4ccccc4c3C2(C)C)=[N+](CCCCS(=O)(=O)[O-])c2ccc3ccccc3c21; PEG4 = NCCOCCOCCOCCOCCC(=O)O

For `CC(C)[C@@H]1NC(=O)[C@H](CC(N)=O)NC(=O)CNC(=O)[C@@H](NC(=O)CNC(=O)CCOCCOCCOCCOCCNC(=O)CC[C@H](NC(=O)CCCCCN2/C(=C/C=C/C=C/C=C/C3=[N+](CCCCS(=O)(=O)[O-])c4ccc5ccccc5c4C3(C)C)C(C)(C)c3c2ccc2ccccc32)C(=O)NCCOCCOCCOCCOCCC(=O)NCC(=O)N[C@H]2CSSC[C@@H](C(=O)O)NC(=O)CNC(=O)[C@H](CCC(N)=O)NC(=O)[C@H](CCCNC(=N)N)NC(=O)[C@H](C(C)C)NC(=O)[C@H](C(C)C)NC(=O)[C@H](CC(N)=O)NC(=O)CNC2=O)CSSC[C@@H](C(=O)O)NC(=O)CNC(=O)[C@H](CCC(N)=O)NC(=O)[C@H](CCCNC(=N)N)NC(=O)[C@H](C(C)C)NC1=O` (I: X1-E[PEG4]GCGNVVRQGC-OH / II: [PEG4]GCGNVVRQGC-OH; amide I:1-II:N; disulfide I:4-I:12, II:3-II:11), in the data set on 4T1 [1], the cell viability was over 90%. The outcome with 4T1 [2], in the data set on 4T1 [17], in the data set on 4T1 [19], in the data set on 4T1 [20] and with 4T1 [21] was Active. Besides, the Drug uptake result in data set [3], in data set [4], in data set [5], in data set [6], in data set [11] and in [13] was “Active” each time. Besides, the Drug uptake result in data set [14], in data set [15] and in data set [27] was “Active” throughout. Besides, the AUC(0-t) at 24 h, 100 µM in data set [7] was found to be 1.29 µM·h. The MRT last at 24 h, 100 µM in data set [8] is 5.77 h. For the same molecule, in data set [9], the half-life at 100 µM is 5.9 h. Moreover, the highest level in data set [10] (Cmax at 100 µM) was 212 nM. Further, the T/C in data set [12] came out at 40. Further, the T in the data set on 4T1 [16] stood at 51 °C. For the same molecule, the Activity entry in data set [18], in [22], in data set [23], in [24], in [25] and in [26] was “Non-Toxic” each time.
Turning to `CC(C)[C@@H]1NC(=O)[C@H](CC(N)=O)NC(=O)CNC(=O)[C@@H](NC(=O)CNC(=O)CCOCCOCCOCCOCCNC(=O)CCCCCN2/C(=C/C=C/C=C/C=C/C3=[N+](CCCCS(=O)(=O)[O-])c4ccc5ccccc5c4C3(C)C)C(C)(C)c3c2ccc2ccccc32)CSSC[C@@H](C(=O)O)NC(=O)CNC(=O)[C@H](CCC(N)=O)NC(=O)[C@H](CCCNC(=N)N)NC(=O)[C@H](C(C)C)NC1=O` ({X1-PEG4}-GCGNVVRQGC-OH; disulfide 2-10), the Drug uptake entry in data set [11] is “Active”. Besides, the T with 4T1 [16] was determined as 47 °C. Moreover, the result in the data set with 4T1 [17] was Active.
Molecule `CC1(C)C(/C=C/C=C/C=C/C=C2\N(CCCCS(=O)(=O)[O-])c3ccc4ccccc4c3C2(C)C)=[N+](CCCCS(=O)(=O)[O-])c2ccc3ccccc3c21.[Na+]` [INDOCYANINE GREEN] displayed an AUC(0-t) at 24 h, 100 µM in data set [7] of 0.0175 µM·h. This molecule also showed an MRT last at 24 h, 100 µM in data set [8] of 0.251 h. This molecule also showed a half-life at 100 µM in data set [9] of 0.4 h. Also, the peak level in data set [10] (Cmax at 100 µM) was 57.6 nM. For the same molecule, the T with 4T1 [16] was determined as 40 °C.
